Test system: subjects with moderately to severely active RA who have an inadequate response to methotrexate (MTX)
Assay: Study 1 (add-on to MTX) - DAS28(CRP) scores
Assay type: in vivo, human
Design: key to DAS28(CRP) mean CFB (LOCF): change from baseline in DAS28(CRP) score (joints, CRP, 0-100 VAS)
Experimental: Double-blind, placebo-controlled add on study in subjects with moderately to severely active RA who have an inadequate response to methotrexate (MTX) (oral or parenteral).
595 subjects randomized to one of 6 dose regimens of Compound 1 (dosed as [Compound 1:HCl:3H2O]) (3 dose levels administered either once or twice daily) or placebo on top of each subject's stable dose of MTX.
Compound 1 (dosed as [Compound 1:HCl:3H2O]) is dosed for twelve weeks once daily (q.d.) (50 mg, 100 mg or 200 mg) or twice daily (b.i.d.) (25 mg, 50 mg or 100 mg); or placebo.
At Week 12, the subjects on placebo who have not achieved 20% improvement in swollen joint count (SJC66) and tender joint count (TJC68) are re-randomized automatically to receive Compound 1 (dosed as a [Compound 1:HCl:3H2O]) either at 100 mg q.d. or 50 mg b.i.d. doses in a blinded fashion; subjects on 50 mg q.d. who have not achieved 20% improvement in SJC66 and TJC68 will be assigned to 100 mg q.d. and subjects on 25 mg b.i.d. that have not achieved a 20% improvement in SJC66 and TJC68 will be assigned to 50 mg b.i.d. Subjects who switch treatment at week 12 are handled as if they discontinued at week 12 for the purpose of statistical analysis, whereas subjects in the other groups will maintain their randomized treatment until Week 24.
The (DAS28(CRP)) is a system developed and validated by the European League Against Rheumatism (EULAR) to measure the progress and improvement of rheumatoid arthritis and has been extensively validated (Wells et al., 2008). The DAS28(CRP) scoring includes a 28 tender and swollen joint count, CRP measurement from blood analysis, and a general health assessment on a visual analog scale (Fransen et al., 2003).
DAS28(CRP) values range from 2.0 to 10.0, and more particularly reflect the following status: • Remission: DAS28(CRP) ≤2.6 • Low Disease activity: 2.6 <DAS28(CRP) ≤3.2 • Moderate Disease Activity: 3.2 <DAS28(CRP) ≤5.1 • High Disease Activity: DAS28(CRP) >5.1
In practice, the DAS28(CRP) measurement involves the evaluation 28 different joints including in the measurement (proximal interphalangeal joints (10 joints), metacarpophalangeal joints (10), wrists (2), elbows (2), shoulders (2), and knees (2)). When looking at these joints, both the number of joints with tenderness upon touching and swelling are counted.
Secondly, C-reactive protein level is measured.
Finally, the patient makes a subjective assessment of disease activity during the preceding 7 days on a scale between 0 and 100, where 0 is “no activity” and 100 is “highest activity possible”.
The DAS28(CRP) score is then calculated as follows:
Firstly, the patient is asked to make a vertical mark on a 100 mm Visual Analog Scale (VAS) corresponding to their general health or global disease activity on a touch screen to measure the VAS value, which is used in the formula below.
Secondly, a swollen and tender joint examination is then performed on the patient. The swollen and tender joints are recorded. From this examination are obtained the total amount of swollen joints (SJC) and the total amount of tender joints (TJC), which are used in the formula below.
Thirdly, C-reactive protein (CRP) levels are measured.
Finally, the values obtained above (VAS, TJC28, SJC28, and CRP) are computed into the following Formula to obtain the DAS28(CRP) score.
DAS28(CRP)=0.56*√{square root over (TJC28)}+0.28√{square root over (SJC28)}+[…] ln(CRP+1)+0.014*VAS
The improvement (decreases) in the DAS28(CRP) scores for each patient group at weeks 1, 2, 4, 8 and 12 is shown in Table LXXXVII and Table LXXXVIII below, together with the Hommel-corrected p-value for the pairwise comparisons of each group with placebo.
The number of subjects (N) provided in each groups corresponds to the number of subjects starting the study in each group, and the DAS28 (CRP) data reported below corresponds to the responding subjects continuing for the entire 24 weeks on their initial treatment course.

**Q.** For `O=C(Nc1nc2cccc(-c3ccc(CN4CCS(=O)(=O)CC4)cc3)n2n1)C1CC1` [Compound 1, cyclopropanecarboxylic acid {5-[4-(1,1-dioxo-thiomorpholin-4-ylmethyl)-phenyl]-[1,2,4]triazolo[1,5-a]pyridin-2-yl}-amide], which “DAS28(CRP) mean CFB (LOCF)” value (50 mg q.d., week 1, 12 weeks results) is on record?
**A.** −0.65

**Q.** And the “DAS28(CRP) mean CFB (LOCF)” value (50 mg q.d., week 1, 24 weeks results)?
**A.** −0.65

**Q.** What about the “DAS28(CRP) mean CFB (LOCF)” value (50 mg q.d., week 2, 12 weeks results) of the same molecule?
**A.** −0.94

**Q.** What about the “DAS28(CRP) mean CFB (LOCF)” value (50 mg q.d., week 2, 24 weeks results) of the same molecule?
**A.** −0.94

**Q.** And the “DAS28(CRP) mean CFB (LOCF)” value (50 mg q.d., week 4, 12 weeks results)?
**A.** −1.28

**Q.** And the “DAS28(CRP) mean CFB (LOCF)” value (50 mg q.d., week 4, 24 weeks results)?
**A.** −1.28

**Q.** And the “DAS28(CRP) mean CFB (LOCF)” value (50 mg q.d., week 12, 12 weeks results)?
**A.** −1.75

**Q.** And the “DAS28(CRP) mean CFB (LOCF)” value (50 mg q.d., week 12, 24 weeks results)?
**A.** −1.75

**Q.** And the “DAS28(CRP) mean CFB (LOCF)” value (50 mg q.d., week 16, 24 weeks results)?
**A.** −1.91

**Q.** And the “DAS28(CRP) mean CFB (LOCF)” value (50 mg q.d., week 20, 24 weeks results)?
**A.** −1.99

**Q.** And the “DAS28(CRP) mean CFB (LOCF)” value (50 mg q.d., week 24, 24 weeks results)?
**A.** −1.98

**Q.** And the “% patients reaching low disease activity and/or remission at week 12 (LOCF)” value (50 mg q.d., 12 weeks results)?
**A.** 24%

**Q.** And the “% patients reaching low disease activity at week 12 (LOCF)” value (50 mg q.d., 12 weeks results)?
**A.** 12%

**Q.** And the “% patients reaching remission at week 12 (LOCF)” value (50 mg q.d., 12 weeks results)?
**A.** 12%

**Q.** What about the “% patients reaching low disease activity and/or remission at week 24 (LOCF)” value (50 mg q.d., 24 weeks results) of the same molecule?
**A.** 33%

**Q.** And the “% patients reaching low disease activity at week 24 (LOCF)” value (50 mg q.d., 24 weeks results)?
**A.** 12%

**Q.** What about the “% patients reaching remission at week 24 (LOCF)” value (50 mg q.d., 24 weeks results) of the same molecule?
**A.** 21%

**Q.** What about the “DAS28(CRP) mean CFB (LOCF)” value (50 mg q.d., week 8, 12 weeks results) of the same molecule?
**A.** −1.66

**Q.** And the “DAS28(CRP) mean CFB (LOCF)” value (50 mg q.d., week 8, 24 weeks results)?
**A.** −1.66

**Q.** And the “DAS28(CRP) mean CFB (LOCF)” value (100 mg q.d., week 1, 12 weeks results)?
**A.** −1.01

**Q.** What about the “DAS28(CRP) mean CFB (LOCF)” value (100 mg q.d., week 1, 24 weeks results) of the same molecule?
**A.** −1.00

**Q.** And the “DAS28(CRP) mean CFB (LOCF)” value (100 mg q.d., week 2, 12 weeks results)?
**A.** −1.50

**Q.** What about the “DAS28(CRP) mean CFB (LOCF)” value (100 mg q.d., week 2, 24 weeks results) of the same molecule?
**A.** −1.51

**Q.** What about the “DAS28(CRP) mean CFB (LOCF)” value (100 mg q.d., week 4, 12 weeks results) of the same molecule?
**A.** −1.88

**Q.** And the “DAS28(CRP) mean CFB (LOCF)” value (100 mg q.d., week 4, 24 weeks results)?
**A.** −1.89

**Q.** And the “DAS28(CRP) mean CFB (LOCF)” value (100 mg q.d., week 8, 24 weeks results)?
**A.** −2.13

**Q.** What about the “DAS28(CRP) mean CFB (LOCF)” value (100 mg q.d., week 12, 12 weeks results) of the same molecule?
**A.** −2.21

**Q.** And the “DAS28(CRP) mean CFB (LOCF)” value (100 mg q.d., week 12, 24 weeks results)?
**A.** −2.23

**Q.** And the “DAS28(CRP) mean CFB (LOCF)” value (100 mg q.d., week 16, 24 weeks results)?
**A.** −2.51

**Q.** And the “DAS28(CRP) mean CFB (LOCF)” value (100 mg q.d., week 20, 24 weeks results)?
**A.** −2.65

**Q.** And the “DAS28(CRP) mean CFB (LOCF)” value (100 mg q.d., week 24, 24 weeks results)?
**A.** −2.70

**Q.** And the “% patients reaching low disease activity and/or remission at week 12 (LOCF)” value (100 mg q.d., 12 weeks results)?
**A.** 34%

**Q.** What about the “% patients reaching low disease activity at week 12 (LOCF)” value (100 mg q.d., 12 weeks results) of the same molecule?
**A.** 13%

**Q.** And the “% patients reaching remission at week 12 (LOCF)” value (100 mg q.d., 12 weeks results)?
**A.** 21%

**Q.** What about the “% patients reaching low disease activity and/or remission at week 24 (LOCF)” value (100 mg q.d., 24 weeks results) of the same molecule?
**A.** 51%

**Q.** And the “% patients reaching low disease activity at week 24 (LOCF)” value (100 mg q.d., 24 weeks results)?
**A.** 14%

**Q.** And the “% patients reaching remission at week 24 (LOCF)” value (100 mg q.d., 24 weeks results)?
**A.** 36%

**Q.** And the “DAS28(CRP) mean CFB (LOCF)” value (100 mg q.d., week 8, 12 weeks results)?
**A.** −2.12

**Q.** What about the “DAS28(CRP) mean CFB (LOCF)” value (200 mg q.d., week 1, 12 weeks results) of the same molecule?
**A.** −1.17

**Q.** And the “DAS28(CRP) mean CFB (LOCF)” value (200 mg q.d., week 1, 24 weeks results)?
**A.** −1.17

**Q.** What about the “DAS28(CRP) mean CFB (LOCF)” value (200 mg q.d., week 2, 12 weeks results) of the same molecule?
**A.** −1.52

**Q.** What about the “DAS28(CRP) mean CFB (LOCF)” value (200 mg q.d., week 2, 24 weeks results) of the same molecule?
**A.** −1.52

**Q.** What about the “DAS28(CRP) mean CFB (LOCF)” value (200 mg q.d., week 4, 12 weeks results) of the same molecule?
**A.** −1.92

**Q.** And the “DAS28(CRP) mean CFB (LOCF)” value (200 mg q.d., week 4, 24 weeks results)?
**A.** −1.92

**Q.** And the “DAS28(CRP) mean CFB (LOCF)” value (200 mg q.d., week 8, 24 weeks results)?
**A.** −2.31

**Q.** And the “DAS28(CRP) mean CFB (LOCF)” value (200 mg q.d., week 12, 12 weeks results)?
**A.** −2.49

**Q.** What about the “DAS28(CRP) mean CFB (LOCF)” value (200 mg q.d., week 12, 24 weeks results) of the same molecule?
**A.** −2.47

**Q.** And the “DAS28(CRP) mean CFB (LOCF)” value (200 mg q.d., week 16, 24 weeks results)?
**A.** −2.70

**Q.** And the “DAS28(CRP) mean CFB (LOCF)” value (200 mg q.d., week 20, 24 weeks results)?
**A.** −2.86

**Q.** And the “DAS28(CRP) mean CFB (LOCF)” value (200 mg q.d., week 24, 24 weeks results)?
**A.** −2.80

**Q.** And the “% patients reaching low disease activity and/or remission at week 12 (LOCF)” value (200 mg q.d., 12 weeks results)?
**A.** 37%

**Q.** And the “% patients reaching low disease activity at week 12 (LOCF)” value (200 mg q.d., 12 weeks results)?
**A.** 15%

**Q.** And the “% patients reaching remission at week 12 (LOCF)” value (200 mg q.d., 12 weeks results)?
**A.** 22%

**Q.** What about the “% patients reaching low disease activity and/or remission at week 24 (LOCF)” value (200 mg q.d., 24 weeks results) of the same molecule?
**A.** 51%

**Q.** And the “% patients reaching low disease activity at week 24 (LOCF)” value (200 mg q.d., 24 weeks results)?
**A.** 26%

**Q.** And the “% patients reaching remission at week 24 (LOCF)” value (200 mg q.d., 24 weeks results)?
**A.** 26%

**Q.** And the “DAS28(CRP) mean CFB (LOCF)” value (200 mg q.d., week 8, 12 weeks results)?
**A.** −2.30
